According to patent EP1004870A1, “Liquid barriers for assays” (Aurora Biosciences Corporation, priority 1998, dated 2000):
“And” between values parts separate entries of the source, which are not always exact repeats. Equal entries are not always repeated. Where two headings read alike, the source gives them in different places.

Molecular target: T1, M1 receptor (Homo sapiens, UniProt P11229)
T1 sequence (P11229 1-460): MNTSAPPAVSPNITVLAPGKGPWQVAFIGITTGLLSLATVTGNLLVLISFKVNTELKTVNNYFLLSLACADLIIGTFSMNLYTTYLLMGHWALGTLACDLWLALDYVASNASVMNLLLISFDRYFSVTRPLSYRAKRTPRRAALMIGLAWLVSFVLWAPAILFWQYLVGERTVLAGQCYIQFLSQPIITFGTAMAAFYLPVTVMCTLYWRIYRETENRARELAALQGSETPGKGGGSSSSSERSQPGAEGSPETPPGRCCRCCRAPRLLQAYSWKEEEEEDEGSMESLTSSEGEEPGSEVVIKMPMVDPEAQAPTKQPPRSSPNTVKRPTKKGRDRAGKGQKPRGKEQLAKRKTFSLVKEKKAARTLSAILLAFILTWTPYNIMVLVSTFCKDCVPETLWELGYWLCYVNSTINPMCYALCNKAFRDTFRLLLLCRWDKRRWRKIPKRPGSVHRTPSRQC
Assay: Antagonist assay: beta-lactamase expression in carbachol-stimulated Jurkat C2 cells (CCF2/AM fluorescence read-out), mechanical vs liquid barrier

[1] = Liquid barrier (silicone oil, Dow Corning Silicone 200 Fluid 5.0 cs), cells stimulated with carbachol, 96-well plate
[2] = Mechanical barrier (polystyrene lid), cells stimulated with carbachol, 96-well plate

Molecule | Percent inhibition of beta- lactamase expression in C2 cells in response to the presence of the indicated chemical | Percent inhibition of beta- lactamase expression in C2 cells in response to the presence of the indicated chemical [1] | Percent inhibition of beta- lactamase expression in C2 cells in response to the presence of the indicated chemical [2]
C[N+]12CCC(CC1)C(OC(=O)C(O)(c1ccccc1)c1ccccc1)C2 (stereo not drawn) [Clidinium] | 82% and 91% | – | –
CCN(CC)C(C)CN1c2ccccc2Sc2ccccc21 (stereo not drawn) [Ethopropazine] | – | 43% | 88%
C[N+]1(C)CCCC(OC(=O)C(O)(c2ccccc2)c2ccccc2)C1 (stereo not drawn) [Mepenzolate] | – | 90% | 91%
CC(C)[N+](C)(CCOC(=O)C1c2ccccc2Oc2ccccc21)C(C)C [Propantheline] | – | 95% | 95%
Isopropamine | – | 78% | 91%
